From patent US11147272B2, “Pyridone compounds and agricultural and horticultural fungicides comprising the same as active ingredients” (MITSUI CHEMICALS AGRO, INC., priority 2017, dated 2021)

Assays:
Magnaporthe grisea = assay: whole plant or invertebrate; format: in vivo; conditions: Blast on rice; class of control value
Alternaia brassicicola = assay: Test Example C: Alternaria sooty spot on cabbage; format: in vivo; conditions: Alternaria sooty spot on cabbage; class of control value
Description: Seeds of a test plant (cabbage variety: Shikidori) were planted and cultivated until the cotyledons extended.
<Control Value> Control value=100{1−(n/3)}

Puccinia recondita = assay: Test Example E: Brown rust on wheat; format: in vivo; conditions: Brown rust on wheat; class of control value
Phytophthora infestans = assay: whole plant or invertebrate; format: in vivo; conditions: Late blight on tomato; class of control value
Botrytis cinerea = assay: Test Example B: Gray mold on tomato; conditions: Gray mold on tomato; class of control value
Plasmopara viticola = assay: Test Example G: Downy mildew on vine; conditions: Downy mildew on vine (Neomuscat); 250 ppm spray, 2.5 ml/pot; assessed 7 to 10 days after inoculation
[1] = tested on: Colletotrichum orbiculare; assay: Test Example H: Anthracnose on cucumber; conditions: Anthracnose on cucumber (Sagami Hanjiro); 250 ppm spray, 2.5 ml/pot; assessed 6 to 10 days after inoculation
[2] = tested on: Blumeria graminis f. sp. hordei; assay: Test Example D: Powdery mildew on barley; conditions: Powdery mildew on barley; class of control value

SMILES | Test A control value class (Magnaporthe grisea) | Test C control value class (Alternaia brassicicola) | Test E control value class (Puccinia recondita) | Test F control value class (Phytophthora infestans) | Test B control value class (Botrytis cinerea) | Test G control value class (Plasmopara viticola) | Test H control value class [1] | Test D control value class [2]
CCOC(C)(C)c1cc(Cl)c(=O)n(CC)c1-c1c(F)cc(OC)cc1F [compound 162] | H (more than 50% control value) | H (more than 50% control value) | H (more than 50% control value) | L (50% or less control value) | H (more than 50% control value) | H (more than 50% control value) | H (more than 50% control value) | H (more than 50% control value)
CCn1c(-c2c(F)cc(F)cc2F)c(CC(C)(C)C)cc(Cl)c1=O [compound 169] | H (more than 50% control value) | H (more than 50% control value) | H (more than 50% control value) | H (more than 50% control value) | H (more than 50% control value) | H (more than 50% control value) | H (more than 50% control value) | H (more than 50% control value)
CCn1c(-c2c(F)cc(F)cc2F)c(C(=O)C(C)(C)C)cc(Cl)c1=O [compound 173] | L (50% or less control value) | H (more than 50% control value) | H (more than 50% control value) | L (50% or less control value) | H (more than 50% control value) | L (50% or less control value) | H (more than 50% control value) | H (more than 50% control value)
CCn1c(-c2ccc(Br)cc2)c(CC(C)C)ccc1=O [compound 175] | L (50% or less control value) | L (50% or less control value) | H (more than 50% control value) | L (50% or less control value) | H (more than 50% control value) | L (50% or less control value) | L (50% or less control value) | H (more than 50% control value)
CCn1c(-c2ccc(F)cc2Cl)c(C2CCCCC2)ccc1=O [compound 176] | H (more than 50% control value) | H (more than 50% control value) | H (more than 50% control value) | H (more than 50% control value) | H (more than 50% control value) | L (50% or less control value) | L (50% or less control value) | H (more than 50% control value)
CCn1c(-c2ccc(Br)cc2)c(CC(C)C)cc(Cl)c1=O [compound 177] | L (50% or less control value) | H (more than 50% control value) | H (more than 50% control value) | L (50% or less control value) | H (more than 50% control value) | L (50% or less control value) | L (50% or less control value) | L (50% or less control value)
CCn1c(-c2ccc(Br)cc2)c(CC(C)C)cc(Br)c1=O [compound 178] | L (50% or less control value) | H (more than 50% control value) | H (more than 50% control value) | L (50% or less control value) | H (more than 50% control value) | L (50% or less control value) | L (50% or less control value) | L (50% or less control value)
CCn1c(-c2c(F)cc(OC)cc2F)c(C(=O)C(C)(C)C)cc(Cl)c1=O [compound 179] | H (more than 50% control value) | H (more than 50% control value) | H (more than 50% control value) | L (50% or less control value) | H (more than 50% control value) | L (50% or less control value) | H (more than 50% control value) | H (more than 50% control value)
CCn1c(-c2ccc(F)cc2Cl)c(C2CCCCC2)cc(Cl)c1=O [compound 181] | H (more than 50% control value) | H (more than 50% control value) | H (more than 50% control value) | L (50% or less control value) | H (more than 50% control value) | H (more than 50% control value) | H (more than 50% control value) | H (more than 50% control value)
CCn1c(-c2ccc(F)cc2Cl)c(C2CCCCC2)cc(Br)c1=O [compound 182] | H (more than 50% control value) | H (more than 50% control value) | H (more than 50% control value) | L (50% or less control value) | H (more than 50% control value) | L (50% or less control value) | L (50% or less control value) | H (more than 50% control value)
